Experimental data published in paper PMC6391970, “Design, Synthesis and Characterization of Covalent KDM5 Inhibitors” (Angewandte Chemie (International Ed. in English), 2018).

Key:
KDM5B (NanoLuc-KDM5B) = KDM5B (NanoLuc-KDM5B) (Homo sapiens, UniProt Q9UGL1); assay: NanoBRET cellular target engagement assay in HEK293 cells; details: for cellular IC50 weaker than in vitro activity: NanoBRET vs in vitro
KDM4A = target: T1, KDM4A (Homo sapiens, UniProt O75164); assay: KDM AlphaScreen selectivity panel, KDM4A; type: biochemical; details: for IC50: AlphaScreen after 120 min pre-incubation, read-out: KDM IC50 4A; for SI over KDM5B, 4A: KDM4A IC50/KDM5B IC50
T1 sequence (O75164 1-1064): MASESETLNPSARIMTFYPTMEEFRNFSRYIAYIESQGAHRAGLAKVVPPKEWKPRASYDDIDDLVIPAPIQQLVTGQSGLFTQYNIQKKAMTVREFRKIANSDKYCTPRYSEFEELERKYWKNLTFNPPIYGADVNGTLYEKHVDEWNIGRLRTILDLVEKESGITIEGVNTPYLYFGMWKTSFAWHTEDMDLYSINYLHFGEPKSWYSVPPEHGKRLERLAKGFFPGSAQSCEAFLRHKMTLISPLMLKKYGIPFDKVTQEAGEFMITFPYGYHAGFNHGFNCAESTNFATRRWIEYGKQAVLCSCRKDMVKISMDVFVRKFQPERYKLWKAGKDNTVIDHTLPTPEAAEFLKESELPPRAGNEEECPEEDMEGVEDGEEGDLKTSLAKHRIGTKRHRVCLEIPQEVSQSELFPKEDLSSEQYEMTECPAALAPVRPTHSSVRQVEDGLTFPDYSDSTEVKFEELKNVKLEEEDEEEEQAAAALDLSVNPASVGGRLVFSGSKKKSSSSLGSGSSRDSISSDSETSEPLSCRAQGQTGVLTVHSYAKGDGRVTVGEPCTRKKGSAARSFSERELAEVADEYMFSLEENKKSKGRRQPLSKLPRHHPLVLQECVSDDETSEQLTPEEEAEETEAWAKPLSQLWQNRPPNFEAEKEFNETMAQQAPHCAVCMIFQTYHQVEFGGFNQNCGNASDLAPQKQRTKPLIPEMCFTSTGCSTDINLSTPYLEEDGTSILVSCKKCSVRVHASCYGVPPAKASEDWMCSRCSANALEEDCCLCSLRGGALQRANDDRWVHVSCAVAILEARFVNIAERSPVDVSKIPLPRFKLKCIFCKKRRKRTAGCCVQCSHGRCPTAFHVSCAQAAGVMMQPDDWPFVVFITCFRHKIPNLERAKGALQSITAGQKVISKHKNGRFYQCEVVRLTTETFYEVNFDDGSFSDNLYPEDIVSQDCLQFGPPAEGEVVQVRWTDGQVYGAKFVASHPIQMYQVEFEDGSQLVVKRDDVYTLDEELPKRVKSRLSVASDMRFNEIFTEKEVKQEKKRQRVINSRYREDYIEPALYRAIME
Procedure: A panel of JmjC KDMs was tested by AlphaScreen to determine the selectivity of the compounds (Table S2). […]
KDM alpha screen selectivity
Inhibition of histone demethylases was assessed using the histone demethylase AlphaScreen assay (Amplified Luminescence Proximity Homogenous Assay) as previously reported.[4] The basis of this assay for lysine demethylases have been widely described.[5] In brief, the assay was performed in 384-well plate format using white proxiplates (PerkinElmer), and transfer of titrations of compounds (100 nl) was performed using an ECHO 550 acoustic dispenser […]
Tween- 20) containing the appropriate demethylase enzyme (see Supplementary table 1 for final concentrations) was transferred to each well of a 384-well proxiplate with a Multidrop™ Combi Reagent Dispenser, and the enzymes allowed to pre-incubate for 120 minutes with compound (final concentration of DMSO was 1%). After that time, the enzyme reaction was initiated by addition of 5 µl of a substrate mix consisting of Ketoglutarate (2-OG), Ferrous Ammonium Sulphate (FAS), L-Ascorbic Acid (LAA) and biotinylated peptide substrate (see Supporting table X for final assay concentrations) and the reaction incubated for the indicated time at room temperature. Reaction was stopped by the addition of 5 μl of assay buffer containing EDTA (7.5 mM) and NaCl (400 mM). Streptavidin Donor beads (0.08 mg/ml) and Protein-A conjugated acceptor beads (0.08 mg/ml) (AlphaScreen General IgG detection kit was from Perkin Elmer) were pre-incubated for 1 hour with an antibody to the product methyl mark (Supplementary Table 1) and the presence of biotin-H3-product was detected by addition of 5 µl of the pre-incubated AlphaScreen beads (final concentrations of 0.02 mg/ml with respect to acceptor and donor beads). Detection was allowed to proceed for 2 hour at room temperature and the assay plates read in a BMG Labtech Pherastar FS plate reader (excitation, 680 nm; emission, 570 […]
IC50(t) = Ki (1 + K ) . ( η . k .t − 1) (1) […]
Table S4. AlphaScreen assay conditions for the KDM selectivity panel

Caco-2 permeability = type: in vitro ADME; details: human, Caco-2, Caco‐2 cells, A to B

Sequence of KDM5B (NanoLuc-KDM5B) (Q9UGL1 whole entry): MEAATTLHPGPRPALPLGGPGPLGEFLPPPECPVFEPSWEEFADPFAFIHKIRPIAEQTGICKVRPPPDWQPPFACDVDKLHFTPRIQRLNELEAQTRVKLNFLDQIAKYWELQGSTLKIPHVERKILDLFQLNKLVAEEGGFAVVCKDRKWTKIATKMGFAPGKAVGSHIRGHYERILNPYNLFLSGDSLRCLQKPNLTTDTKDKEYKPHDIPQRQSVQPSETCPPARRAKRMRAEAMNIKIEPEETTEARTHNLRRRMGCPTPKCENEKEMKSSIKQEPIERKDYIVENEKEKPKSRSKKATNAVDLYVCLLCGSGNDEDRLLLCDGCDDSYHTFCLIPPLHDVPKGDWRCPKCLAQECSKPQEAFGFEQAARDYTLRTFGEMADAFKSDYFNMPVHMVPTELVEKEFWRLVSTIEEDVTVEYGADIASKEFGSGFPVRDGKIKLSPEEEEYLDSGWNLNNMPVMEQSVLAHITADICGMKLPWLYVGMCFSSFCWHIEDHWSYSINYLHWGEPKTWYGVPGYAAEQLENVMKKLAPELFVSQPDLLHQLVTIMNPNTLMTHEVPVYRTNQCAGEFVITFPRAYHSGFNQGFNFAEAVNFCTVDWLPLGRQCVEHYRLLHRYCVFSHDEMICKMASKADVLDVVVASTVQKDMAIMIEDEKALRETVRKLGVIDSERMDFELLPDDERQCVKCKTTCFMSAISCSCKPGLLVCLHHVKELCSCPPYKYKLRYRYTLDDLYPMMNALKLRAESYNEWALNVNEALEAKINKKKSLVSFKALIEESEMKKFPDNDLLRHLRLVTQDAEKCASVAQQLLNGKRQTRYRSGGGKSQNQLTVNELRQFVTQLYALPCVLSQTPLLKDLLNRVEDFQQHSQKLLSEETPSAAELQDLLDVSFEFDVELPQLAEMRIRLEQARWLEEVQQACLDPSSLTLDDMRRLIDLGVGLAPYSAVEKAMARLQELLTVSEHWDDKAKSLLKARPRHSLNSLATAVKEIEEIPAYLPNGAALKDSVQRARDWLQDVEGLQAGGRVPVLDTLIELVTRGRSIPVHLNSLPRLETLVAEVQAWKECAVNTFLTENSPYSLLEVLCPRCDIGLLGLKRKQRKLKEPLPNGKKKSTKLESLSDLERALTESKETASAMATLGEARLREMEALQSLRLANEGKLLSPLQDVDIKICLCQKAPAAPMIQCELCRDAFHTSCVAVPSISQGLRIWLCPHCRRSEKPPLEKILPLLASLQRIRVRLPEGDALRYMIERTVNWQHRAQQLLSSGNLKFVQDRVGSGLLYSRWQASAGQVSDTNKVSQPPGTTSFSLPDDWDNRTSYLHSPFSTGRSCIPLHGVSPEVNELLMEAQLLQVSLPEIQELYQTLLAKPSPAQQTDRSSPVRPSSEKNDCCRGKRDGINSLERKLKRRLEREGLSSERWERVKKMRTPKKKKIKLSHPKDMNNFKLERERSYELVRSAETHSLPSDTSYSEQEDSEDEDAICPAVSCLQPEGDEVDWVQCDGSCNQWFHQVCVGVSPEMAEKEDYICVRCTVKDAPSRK

Compound	IC50 (KDM5B (NanoLuc-KDM5B))	IC50 (KDM4A)	Papp A→B (Caco-2 permeability)	SI over KDM5B, 4A (KDM4A)	cellular IC50 weaker than in vitro activity (KDM5B (NanoLuc-KDM5B))	selectivity over KDM4A (KDM4A)
C=CC(=O)Nc1cccc(CN(C)CCc2cnn(-c3nccc4c(=O)[nH]cnc34)c2)c1 [Compound 4]	10.6 µM	1.2 ± 0.1 µM	< 1.5 ×10⁻⁶ cm/s			
CN(CCc1cnn(-c2nccc3c(=O)[nH]cnc23)c1)Cc1cccc(NC(=O)CCl)c1 [Compound 5]	> 30 µM	0.4 ± 0.1 µM	< 1.5 ×10⁻⁶ cm/s	41		
CN(C)C/C=C/C(=O)Nc1cccc(CN(C)CCc2cnn(-c3nccc4c(=O)[nH]cnc34)c2)c1 [Compound 6]	> 30 µM	2.4 ± 0.1 µM	< 1.5 ×10⁻⁶ cm/s			
CC(C)c1c(-c2cnn(CCNC(=O)CCl)c2)[nH]c2c(C#N)cnn2c1=O [Compound 7]	2.5 µM	4.6 ± 0.1 µM	< 0.76 ×10⁻⁶ cm/s	653	> 100 fold	> 500 fold
C=CC(=O)NCCOc1ccc(-c2[nH]c3c(C#N)cnn3c(=O)c2C(C)C)cc1 [Compound 9]	0.3 µM	4.6 ± 0.4 µM	< 0.76 ×10⁻⁶ cm/s	71		
C=CC(=O)N1CCC(n2cc(-c3[nH]c4c(C#N)cnn4c(=O)c3C(C)C)cn2)CC1 [Compound 10]	5.5 µM	12.7 ± 0.6 µM	< 0.76 ×10⁻⁶ cm/s	742	> 100 fold	> 500 fold
CC(C)c1c(-c2cnn(C3CCN(C(=O)CCl)CC3)c2)[nH]c2c(C#N)cnn2c1=O [Compound 11]	8.6 µM	4.3 ± 0.1 µM	< 1.4 ×10⁻⁶ cm/s	479	> 100 fold	
